In US10125118B2, “Heteroaryl compounds and their use as therapeutic drugs” (Dong-A Socio Holdings Co., Ltd., priority 2015, dated 2018):

Tests used:
[1] = molecular target: human c-MER catalytic domain (Homo sapiens (Human), UniProt Q12866); assay: LanthaScreen TR-FRET kinase assay, c-MER; details: read-out: Mer TK inhibition (IC50); Biochemical IC50, TR-FRET, 10 uM ATP
[2] = tested on: CD8-MerTK in Ba/F3-CDM cells; assay: In cell MER kinase assay, Ba/F3-CDM cell proliferation without IL-3 (Celltiter-Glo); assay type: cell-based, murine; details: 48 hours compound treatment, read-out: Cell growth inhibition (GI50)
Experimental: To establish an in cell kinase assay for MerTK kinase, the IL-3 dependent Ba/F3 cells of murine lymphoid origin was transfected with CD8-MerTK. […] For a routine cellular assay, Ba/F3-CDM cells were seeded at 2,000 cells per well in 384-well cell culture plate containing DMEM/10% FBS culture media and incubated for 24 hours before addition of compounds pre-diluted in culture media. Following compound treatment, cells were further incubated for 48 hours and the proliferation was measured. To discriminate a Ba/F3 growth inhibition by a specific inhibition of MerTK kinase following compound treatment vs growth inhibition due to a non-specific unintended cytotoxicity of compounds, we routinely carried out control sets of Ba/F3 cells in parallel that grown in IL3-supplemented growth media. In the presence of IL-3, the proliferation of Ba/F3 is no longer dependent on the MerTK activity. Cell growth and proliferation was measured with Celltiter-Glo™ system (Promega, USA) according to the manufacturer's instruction. The half-maximal growth inhibitory concentration (GI50) value was calculated with Prism6.0 software (GraphPad, USA).

human c-MER catalytic domain, sequence (Q12866 587-858): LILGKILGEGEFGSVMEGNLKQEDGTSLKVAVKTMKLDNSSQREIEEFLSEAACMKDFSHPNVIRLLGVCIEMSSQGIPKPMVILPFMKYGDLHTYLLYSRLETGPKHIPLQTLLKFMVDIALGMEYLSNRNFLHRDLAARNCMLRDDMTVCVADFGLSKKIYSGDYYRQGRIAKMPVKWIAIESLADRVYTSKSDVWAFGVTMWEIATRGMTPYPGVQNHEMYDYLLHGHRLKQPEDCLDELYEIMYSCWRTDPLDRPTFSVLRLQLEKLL

Structure (SMILES)	IC50 [1] [µM]	GI50 [2] [µM]
CN1CCN(Cc2ccc(-c3ccc(CO[C@H]4CCC[C@@H]4NC(=O)c4cc(-c5cnn(C)c5)cnc4N)cc3)c(Cl)c2)CC1 [Example 202, 2-amino-N-((1S,2S)-2-((2′-chloro-4′-((4-methylpiperazin-1-yl)-methyl)-[1,1′-biphenyl]-4-yl)methoxy)cyclopentyl)-5-(1-methyl-1H-pyrazol-4-yl)-nicotinamide]	< 0.01	0.1 to 0.5
CN1CCN(Cc2ccc(-c3ccc(CO[C@H]4CCC[C@@H]4NC(=O)c4cc(-c5cnn(C)c5)cnc4N)cc3)cn2)CC1 [Example 203, 2-amino-5-(1-methyl-1H-pyrazol-4-yl)-N-((1S,2S)-2-((4-(6-((4-methylpiperazin-1-yl)methyl)pyridin-3-yl)benzyl)oxy)cyclopentyl)nicotinamide]	< 0.01	0.1 to 0.5
Cn1cc(-c2cnc(N)c(C(=O)N[C@H]3CCC[C@@H]3OCc3ccc(-c4ccc(CN5CCN(CCO)CC5)c(C(F)(F)F)c4)cc3)c2)cn1 [Example 205, 2-amino-N-((1S,2S)-2-((4′-((4-(2-hydroxyethyl)piperazin-1-yl)methyl)-3′-(trifluoromethyl)-[1,1′-biphenyl]-4-yl)methoxy)cyclopentyl)-5-(1-methyl-1H-pyrazol-4-yl)nicotinamide]	< 0.01	< 0.1
Cn1cc(-c2cnc(N)c(C(=O)N[C@H]3CCC[C@@H]3OCc3ccc(-c4ccc(CN5CCN(CCO)CC5)cc4Cl)cc3)c2)cn1 [Example 206, 2-amino-N-((1S,2S)-2-((2′-chloro-4′-((4-(2-hydroxyethyl)-piperazin-1-yl)methyl)-[1,1′-biphenyl]-4-yl)methoxy)cyclopentyl)-5-(1-methyl-1H-pyrazol-4-yl)nicotinamide]	< 0.01	0.1 to 0.5
CC(c1ccc(-c2ccc(CO[C@H]3CCC[C@@H]3NC(=O)c3cc(-c4cnn(C)c4)cnc3N)cc2)cc1)N1CCN(C)CC1 (stereo partly drawn) [Example 208, 2-amino-5-(1-methyl-1H-pyrazol-4-yl)-N-((1S,2S)-2-((4′-(1-(4-methylpiperazin-1-yl)ethyl)-[1,1′-biphenyl]-4-yl)methoxy)cyclopentyl)nicotinamide]	< 0.01	< 0.1
CC(c1ccc(-c2ccc(CO[C@H]3CCC[C@@H]3NC(=O)c3cc(-c4cnn(C)c4)cnc3N)cc2)cc1)N1C[C@@H](C)N(C)[C@@H](C)C1 (stereo partly drawn) [Example 209, 2-amino-5-(1-methyl-1H-pyrazol-4-yl)-N-((1S,2S)-2-((4′-(1-((3S,5R)-3,4,5-trimethylpiperazin-1-yl)ethyl)-[1,1′-biphenyl]-4-yl)methoxy)-cyclopentyl)nicotinamide]	< 0.01	< 0.1
CC(c1ccc(-c2ccc(CO[C@H]3CCC[C@@H]3NC(=O)c3cc(-c4cnn(C)c4)cnc3N)cc2)cc1)N1C[C@@H](C)N(CCO)[C@@H](C)C1 (stereo partly drawn) [Example 211]	< 0.01	< 0.1
CC(c1c(F)cc(-c2ccc(CO[C@H]3CCC[C@@H]3NC(=O)c3cc(-c4cnn(C)c4)cnc3N)cc2)cc1F)N1CCN(CCO)CC1 (stereo partly drawn) [Example 212, 2-amino-N-((1S,2S)-2-((3′,5′-difluoro-4′-(1-(4-(2-hydroxyethyl)-piperazin-1-yl)ethyl)-[1,1′-biphenyl]-4-yl)methoxy)cyclopentyl)-5-(1-methyl-1H-pyrazol-4-yl)nicotinamide]	< 0.01	> 1
C[C@H](c1ccc(-c2ccc(CO[C@H]3CCC[C@@H]3NC(=O)c3cc(-c4cnn(C)c4)cnc3N)cc2)cc1)N1CCNCC1 [Example 213, 2-amino-5-(1-methyl-1H-pyrazol-4-yl)-N-((1S,2S)-2-((4′-((R)-1-(piperazin-1-yl)ethyl)-[1,1′-biphenyl]-4-yl)methoxy)cyclopentyl)nicotinamide]	< 0.01	0.1 to 0.5
C[C@H](c1ccc(-c2ccc(CO[C@H]3CCC[C@@H]3NC(=O)c3cc(-c4cnn(C)c4)cnc3N)cc2)cc1)N1CCN(C)CC1 [Example 214, 2-amino-5-(1-methyl-1H-pyrazol-4-yl)-N-((1S,2S)-2-((4′-((R)-1-(4-methylpiperazin-1-yl)ethyl)-[1,1′-biphenyl]-4-yl)methoxy)cyclopentyl)nicotinamide]	< 0.01	< 0.1
C[C@@H](c1ccc(-c2ccc(CO[C@H]3CCC[C@@H]3NC(=O)c3cc(-c4cnn(C)c4)cnc3N)cc2)cc1)N1CCN(C)CC1 [Example 215, 2-amino-5-(1-methyl-1H-pyrazol-4-yl)-N-((1S,2S)-2-((4′-((S)-1-(4-methylpiperazin-1-yl)ethyl)-[1,1′-biphenyl]-4-yl)methoxy)cyclopentyl)nicotinamide]	< 0.01	< 0.1
Cn1cc(-c2cnc(N)c(C(=O)N[C@H]3CCC[C@@H]3OCc3ccc(-c4ccc(C5(N6CCN(CCO)CC6)CC5)cc4)cc3)c2)cn1 [Example 220, 2-amino-N-((1S,2S)-2-((4′-(1-(4-(2-hydroxyethyl)piperazin-1-yl)cyclopropyl)-[1,1′-biphenyl]-4-yl)methoxy)cyclopentyl)-5-(1-methyl-1H-pyrazol-4-yl)nicotinamide]	< 0.01	< 0.1
C[C@@H](c1ccc(-c2ccc(CO[C@H]3CCC[C@@H]3NC(=O)c3cc(-c4ccc(F)nc4)cnc3N)cc2)cc1)N1CCN(C)CC1 [Example 222, 6-amino-6′-fluoro-N-((1S,2S)-2-((4′-((S)-1-(4-methylpiperazin-1-yl)ethyl)-[1,1′-biphenyl]-4-yl)methoxy)cyclopentyl)-[3,3′-bipyridine]-5-carboxamide]	< 0.01	< 0.1
CN1CCN(C2(c3ccc(-c4ccc(CO[C@H]5CCC[C@@H]5NC(=O)c5cc(-c6ccc(F)nc6)cnc5N)cc4)cc3)CC2)CC1 [Example 224, 6-amino-6′-fluoro-N-((1S,2S)-2-((4′-(1-(4-methylpiperazin-1-yl)cyclopropyl)-[1,1′-biphenyl]-4-yl)methoxy)cyclopentyl)-[3,3′-bipyridine]-5-carboxamide]	< 0.01	0.1 to 0.5
CN1CCN(C(C)(C)c2ccc(-c3ccc(CO[C@H]4CCC[C@@H]4NC(=O)c4cc(-c5ccc(F)nc5)cnc4N)cc3)cc2)CC1 [Example 225, 6-amino-6′-fluoro-N-((1S,2S)-2-((4′-(2-(4-methylpiperazin-1-yl)propan-2-yl)-[1,1′-biphenyl]-4-yl)methoxy)cyclopentyl)-[3,3′-bipyridine]-5-carboxamide]	< 0.01	0.1 to 0.5
C[C@@H](c1ccc(-c2ccc(CO[C@H]3CCC[C@@H]3NC(=O)c3cc(-c4ccc(F)nc4)cnc3N)cc2)cc1)N1CCN(CCO)CC1 [Example 226, 6-amino-6′-fluoro-N-((1S,2S)-2-((4′-((S)-1-(4-(2-hydroxyethyl)piperazin-1-yl)ethyl)-[1,1′-biphenyl]-4-yl)methoxy)cyclopentyl)-[3,3′-bipyridine]-5-carboxamide]	< 0.01	< 0.1
C[C@H](c1ccc(-c2ccc(CO[C@H]3CCC[C@@H]3NC(=O)c3cc(-c4ccc(F)nc4)cnc3N)cc2)cc1)N1CCN(CCO)CC1 [Example 227, 6-amino-6′-fluoro-N-((1S,2S)-2-((4′-((R)-1-(4-(2-hydroxyethyl)-piperazin-1-yl)ethyl)-[1,1′-biphenyl]-4-yl)methoxy)cyclopentyl)-[3,3′-bipyridine]-5-carboxamide]	< 0.01	< 0.1
Nc1ncc(-c2ccc(F)nc2)cc1C(=O)N[C@H]1CCC[C@@H]1OCc1ccc(-c2ccc(C3(N4CCN(CCO)CC4)CC3)cc2)cc1 [Example 228]	< 0.01	0.1 to 0.5
